Test results from US20230003721A1, “MITOTHERAPEUTICS FOR THE TREATMENT OF BRAIN DISORDERS” (The University of Florida Research Foundation, Inc., priority 2019, published 2023).
Where a name gives a salt, the structure may show the parent alone.

Legend:
primary neurons [1] = assay: TMRM fluorescence assay of inner mitochondrial membrane potential (ΔΨm); conditions: for TMRM Primary: primary screen; for TMRM Primary / hit in TMRM primary screen when assayed at 4 h: 12.5 μM; for TMRM Primary / TMRM Rescreen: 24 h; for EC50: read-out: TMRM-EC50
primary neurons [2] = assay: CellTiter-Glo luminescence-based ATP assay; format: cell-based, mouse; conditions: for ATP: ATP orthogonal screen, 24 h; for EC50: 15 concentrations from 6 nM to 100 uM
Summary of the method: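 Primary neurons treated from DIV13 for 24 h with compound or DMSO. After part of the medium was removed, CellTiter-Glo reagent was added; plates were shaken 10 min at 200 rpm, kept 2 min in the dark at room temperature, and luminescence read as total ATP.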

[3] = maximal percent increase relative to in-plate DMSO controls, dose response

Compound	TMRM Primary (primary neurons [1])	TMRM Rescreen (primary neurons [1])	ATP (primary neurons [2])	further results
CC(C)N1CCN(c2ccc(OCC3COC(Cn4cncn4)(c4ccc(Cl)cc4Cl)O3)cc2)CC1 (stereo not shown) [terconazole]	5.15 Z-scores	5.95 Z-scores	2.82 Z-scores	
CCN(CC)CC(=O)Nc1c(C)cccc1C [lidocaine hydrochloride]	3.06 Z-scores	4.69 Z-scores	6.98 Z-scores	Emax (primary neurons [1]; Mus musculus, Primary neuron, read-out: TMRM (Effect-size)): 17.4%; EC50 (primary neurons [1]; Mus musculus, Primary neuron): 1890 nM; EC50 (primary neurons [2]; Mus musculus, Primary neuron, dose response): 110 nM; Emax (primary neurons [2]; Mus musculus, Primary neuron, maximal percent increase relative to in-plate DMSO controls, dose response, read-out: ATP (Effect-size)): 15.8%
colistin sulfate	3.27 Z-scores	5.24 Z-scores	5.48 Z-scores	
CN(C)CC/C=C1/c2ccccc2Sc2ccc(Cl)cc21 [chlorprothixene hydrochloride]	6.17 Z-scores	5.04 Z-scores	3.17 Z-scores	
O=C([O-])Cc1c[nH]cn1.[Na+] [imidazol-4-ylacetic acid sodium salt]	3.58 Z-scores	4.56 Z-scores	4.61 Z-scores	hit in TMRM primary screen when assayed at 4 h (primary neurons [1]): imidazol-4-ylacetic acid sodium salt*
CCOC(=O)[C@H](CCc1ccccc1)N[C@H]1CCc2ccccc2N(CC(=O)O)C1=O [benazepril hydrochloride]	3.43 Z-scores	2.43 Z-scores	5.26 Z-scores	
C=C[C@H]1CN2CC[C@H]1C[C@H]2[C@H](OC(=O)OCC)c1ccnc2ccc(OC)cc12 [quinine ethyl carbonate]	4.64 Z-scores	6.26 Z-scores	3.60 Z-scores	
COc1cccc2c1C(=O)c1c(O)c3c(c(O)c1C2=O)C[C@@](O)(C(=O)CO)C[C@@H]3O[C@H]1C[C@H](N)[C@H](O)[C@H](C)O1 [doxorubicin]	4.02 Z-scores	5.05 Z-scores	4.00 Z-scores	
C[C@]12CC[C@@H]3c4ccc(O)cc4C[C@@H](CCCCCCCCC[S+]([O-])CCCC(F)(F)C(F)(F)F)[C@H]3[C@@H]1CC[C@@H]2O (stereo partly shown) [fulvestrant]	3.31 Z-scores	6.27 Z-scores	4.27 Z-scores	
C/C(=C\CO)CCC[C@H](C)CCC[C@H](C)CCCC(C)C [phytol]	3.42 Z-scores	2.70 Z-scores	4.63 Z-scores	
CN(C)CCC=C1c2ccccc2CCc2ccccc21 [amitriptyline hydrochloride]	4.78 Z-scores	1.81 Z-scores	4.82 Z-scores	
COc1ccc2c(c1)CC[C@@H]1[C@@H]2CC[C@]2(C)[C@@H](O)CC[C@@H]12 [estradiol methyl ether]	3.74 Z-scores	3.55 Z-scores	4.80 Z-scores	
acetophenazine maleate	5.64 Z-scores	5.34 Z-scores	5.65 Z-scores	TMRM (Effect-size) (primary neurons [1]; [3]): 17.5%; EC50 (primary neurons [1]; dose response, 15 concentrations from 6 nM to 100 uM): 1150 nM; EC50 (primary neurons [2]; dose response): 300 nM; ATP (Effect-size) (primary neurons [2]; [3]): 16.7%
CC[N+]1(C)CCCC(OC(=O)C(O)(c2ccccc2)c2ccccc2)C1 (stereo not shown) [pipenzolate bromide]	3.14 Z-scores	7.09 Z-scores	3.45 Z-scores	
Cc1nc2sccn2c(=O)c1CCN1CCC(=C(c2ccc(F)cc2)c2ccc(F)cc2)CC1 [ritanserin]	5.25 Z-scores	5.83 Z-scores	4.40 Z-scores	
CC(=O)Oc1ccc2c(c1)CCC1C2CC[C@]2(C)C(=O)CCC12 (stereo partly shown) [estrone acetate]	3.26 Z-scores	5.89 Z-scores	3.36 Z-scores	
CCc1nn(CCCN2CCN(c3cccc(Cl)c3)CC2)c(=O)n1CCOc1ccccc1 [nefazodone hydrochloride]	4.00 Z-scores	6.11 Z-scores	6.30 Z-scores	
CC(=O)O[C@]1(C(C)=O)CC[C@H]2[C@@H]3C[C@H](C)C4=CC(=O)CC[C@]4(C)[C@H]3CC[C@@]21C [medroxyprogesterone acetate]	3.66 Z-scores	3.67 Z-scores	2.64 Z-scores	hit in TMRM primary screen when assayed at 4 h (primary neurons [1]): medroxyprogesterone acetate*
COC(=O)C[C@H]1C(C)(C)C(=O)[C@@H]2CC3=C(CC[C@]4(C)C3=CC(=O)O[C@H]4c3ccoc3)[C@@]1(C)C2=O [carapin-8(9)-ene]	3.50 Z-scores	3.82 Z-scores	4.89 Z-scores	
C=C[C@@](C)(O)CC[C@H]1C(=C)C[C@H](OC(C)=O)[C@H]2C(C)(C)CCC[C@]12C [larixol acetate]	3.96 Z-scores	5.67 Z-scores	2.67 Z-scores	
CC(=O)c1ccc2c(c1)N(CCCN1CCC(CCO)CC1)c1ccccc1S2 [piperacetazine]	5.30 Z-scores	5.01 Z-scores	5.80 Z-scores	
OCc1c[nH]c2ccccc12 [indole-3-carbinol]	3.15 Z-scores	6.27 Z-scores	6.52 Z-scores	
Clc1ccc(CO/N=C(\Cn2ccnc2)c2ccc(Cl)cc2Cl)c(Cl)c1 [oxiconazole nitrate]	3.08 Z-scores	3.28 Z-scores	5.76 Z-scores	
CCCNC(C)(C)COC(=O)c1ccccc1 [meprylcaine hydrochloride]	3.56 Z-scores	5.91 Z-scores	6.05 Z-scores	
CC[C@H]1[C@@H]2C[C@H]3[C@@H]4N(C)c5ccccc5[C@]45C[C@@H]([C@H]2[C@H]5O)N3[C@@H]1O [ajmaline]	3.76 Z-scores	6.40 Z-scores	4.76 Z-scores	
C1CCN2C[C@@H]3C[C@@H](CN4CCCC[C@@H]34)[C@H]2C1 [sparteine sulfate]	2.65 Z-scores	1.95 Z-scores	2.92 Z-scores	
CN[C@H]1CC[C@@H](c2ccc(Cl)c(Cl)c2)c2ccccc21 [sertraline hydrochloride]	3.42 Z-scores	4.15 Z-scores	4.82 Z-scores	
OCCOCCN1CCN(C(c2ccccc2)c2ccc(Cl)cc2)CC1 (stereo not shown) [hydroxyzine pamoate]	3.15 Z-scores	6.04 Z-scores	5.22 Z-scores	
